Like-named read-outs stand apart in the source and are kept apart here.
Columns and labels:
rat ileal tissues = experiment: PK1-evoked short-circuit current (Isc) in rat ileum mucosa, Ussing-type flux chambers
[1] = target: T1, GPR73 (prokineticin 1 receptor) (Homo sapiens, UniProt Q8TCW9); experiment: PK1 functional assay: Ca2+ mobilization on the FLIPR; assay type: cell-based; settings: for IC50: HEK 293 GPR73 cells, read-out: Ca^2+ Mobilization IC50
T1 construct: expressed in transfected cells; host or cells: HEK 293
Method: At a time of 24 h prior to running the assay, in cell culture media (DMEM containing high Glucose and L-glutamine, 10% FBS, 1% Pen/Streptomycin, 1% Sodium Pyruvate, 20 mM HEPES, Zeocin 200 mg/L), 100 µL of 1.3*10^6/ml HEK 293 GPR73 (prokineticin 1 receptor) expressing cells were plated in a 96 well poly-d-lysine coated plate (Costar), and incubated at 37° C. and 5% CO2. On the day in which the assay was run, the media was removed and 200 µL of 5× Calcium Plus Dye (Molecular Devices) which was previously resuspended with 200 mL of assay buffer [HBSS w/Ca^2+ and Mg^2+ w/o phenol red, 20 mM HEPES, 0.1% BSA, 10 mL probenecid (710 mg probenecid in 5 mL of 1N NaOH, to which was then added 5 mL HBSS containing 20 mM HEPES)] was added to each well of the 96-well plate. The plate was incubated at 37° C. and 5% CO2 for 30 min in dark. The plate was removed and allowed to reach RT for 15 min in the dark. The assay was then run on the FLIPR. In Brief: base line read for 1 min, compound added (25 μL) and incubated for 4 min, 15 seconds, PK1 ligand preparation added (25 μL) for a final concentration of a previously determined EC50 and fluorescence was counted for 1 min, 45 seconds. Baseline is described as the amount of relative fluorescence read when buffer alone is added to cells. Baseline was subtracted from all wells. Percent of control was calculated as follows: (Baseline subtracted well value is divided by baseline subtracted max value)*100. Percent inhibition is 100 minus the percent of control value.
The IC50 is defined as the amount of a given compound required to inhibit 50% of the maximum signal that is generated by the concentration of PK1 preparation used in our assay. IC50 values were calculated using GraphPad Prism.

PK1 receptor = target: T2, PK1 receptor (Rattus norvegicus, UniProt Q8R416); experiment: Suppression of PK1 evoked increase in Isc in isolated rat ileum mucosa; settings: test compound 1 µM, 15 min; PK1 10 and 100 nM cumulative
T2 construct: The PK1 evoked increase in Isc requires the presence of endogenous PK1 receptors; from tissue; host or cells: rat ileum mucosa (Ussing-type chambers)
Method: Methodology. The basic methodology for Ussing-type ion flux chambers used in these studies was the same as that described in detail above with the following modifications to the experimental protocol. […] The responses to two sequential EFS were used to gauge tissue viability and comparability of the responses of individual tissues from each rat and between rats. Tissue conductance was measured at periodic intervals as changes in the amplitudes of brief short-circuit current responses evoked by application of 1 mV amplitude bi-polar pulses from a pulse generator using Ohm's Law. Three to four tissues from each rat were studied. The tissues from a given animal were grouped and assigned accordingly: one control tissue which received only vehicle followed by two consecutive doses of PK-1 ligand added in a cumulative fashion to the basolateral surface of the tissue; the remaining two to three tissues from the same animal were assigned to be exposed to a given PK-1 receptor antagonist (e.g., 3-4 tissues from 1 rat: Control, Antagonist1, Antagonist2, and/or Antagonist3). Test compound was added to the basolateral tissue side reservoir at a final concentration of 1 µM and allowed a 15 minute incubation period prior to challenge with the PK1 peptide. […]

rat ileum mucosa = experiment: Carbachol-evoked Isc in rat ileum mucosa (selectivity test); settings: carbachol at two concentrations, ascending cumulative, serosal side
[2] = tested on: isolated rat ileum mucosa
[3] = tested on: ileum mucosal tissues from PK1 receptor knock-out mice; experiment: PK1-evoked Isc in ileum mucosal tissues from PK1 receptor knock-out mice; settings: exogenous PK1 peptide

T1 sequence (Q8TCW9 whole entry, species assumed): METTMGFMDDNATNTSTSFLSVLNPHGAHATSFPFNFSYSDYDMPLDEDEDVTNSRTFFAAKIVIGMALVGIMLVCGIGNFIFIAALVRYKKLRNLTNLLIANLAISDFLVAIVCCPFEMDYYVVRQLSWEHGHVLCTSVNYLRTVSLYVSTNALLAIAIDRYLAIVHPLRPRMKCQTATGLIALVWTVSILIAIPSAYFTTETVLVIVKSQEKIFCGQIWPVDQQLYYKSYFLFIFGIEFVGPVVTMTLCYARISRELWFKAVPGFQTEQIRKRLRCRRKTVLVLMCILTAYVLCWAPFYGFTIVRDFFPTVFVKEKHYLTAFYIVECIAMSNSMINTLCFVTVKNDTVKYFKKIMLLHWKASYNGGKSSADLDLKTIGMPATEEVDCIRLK
T2 sequence (Q8R416 whole entry): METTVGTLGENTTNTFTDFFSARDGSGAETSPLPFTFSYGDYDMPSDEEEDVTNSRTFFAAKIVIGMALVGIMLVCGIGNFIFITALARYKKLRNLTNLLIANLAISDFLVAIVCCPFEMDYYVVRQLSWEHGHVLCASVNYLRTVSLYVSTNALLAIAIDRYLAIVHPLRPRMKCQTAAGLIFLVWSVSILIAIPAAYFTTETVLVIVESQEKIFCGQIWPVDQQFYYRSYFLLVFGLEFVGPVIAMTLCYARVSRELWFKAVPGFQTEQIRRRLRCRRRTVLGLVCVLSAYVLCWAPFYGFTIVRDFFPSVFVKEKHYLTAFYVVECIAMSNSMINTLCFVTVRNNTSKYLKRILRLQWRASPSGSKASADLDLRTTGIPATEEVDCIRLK

CN1[C@@H]2CC[C@H]1C[C@@H](OC(=O)C(CO)c1ccccc1)C2 (stereo partly shown) [Atropine, reference compound]
blockade of the pro-secretory effect of PK1 (rat ileal tissues): not blocked

COc1ccc(Cn2c(NCCn3c(N)nc4ccc(C)cc43)nc(=O)n(Cc3ccc(F)cc3)c2=O)cc1 [Cpd 3, 6-[2-(2-Amino-6-methyl-benzoimidazol-1-yl)-ethylamino]-3-(4-fluoro-benzyl)-1-(4-methoxy-benzyl)-1H-[1,3,5]triazine-2,4-dione]
Ca^2+ Mobilization % Inh @10 µM ([1]; 10 µM, (further determination)): 94%
Ca^2+ Mobilization % Inh @10 µM ([1]; 10 µM): 96%
IC50 ([1]; IC50 (further determination)): 29 nM
IC50 [1]: 8 nM
suppression of the PK1 evoked increase in Isc (PK1 receptor): suppresses
suppression of the pro-secretory effect of carbachol (rat ileum mucosa): failed to suppress
suppression of Cholera toxin induced increase in Isc (figure legends) [2]: suppresses
suppression of the sustained increase in baseline Isc evoked by Cholera toxin [2]: 50-60%
effect versus increased baseline Isc evoked by Vibrio cholera toxin ([2]; 1 μM): no significant effect

NC1=N[C@H](O)[C@H]2[C@H]3O[C@]4(O)O[C@@H]([C@@H](O)[C@@]2(N1)[C@@H]4O)[C@]3(O)CO [Tetrodotoxin, reference compound]
blockade of the pro-secretory effect of PK1 (rat ileal tissues): not blocked

B1: PK1: Recombinant human prokineticin-1 expressed in HEK 293 cells; preparation holds full-length ligand and a four C-terminal residue truncated product (protein, UniProt P58294 20-105, looked up)
Prokineticin-1: AVITGACERDVQCGAGTCCAISLWLRGLRMCTPLGREGEECHPGSHKVPFFRKRKHHTCPCLPNLLCSRFPDGRYRCSMDLKNINF
modifications: mixture with C-terminally truncated product
notes: Recombinant human prokineticin-1 expressed in HEK 293 cells; preparation holds full-length ligand and a four C-terminal residue truncated product
change in Isc compared to wild-type littermates [3]: failed to elicit a significant change
effect on tissue conductance (G) (rat ileal tissues): no significant effect
increase in Isc from baseline (rat ileal tissues; 10 nM PK1): 13.5±2. […]A/cm^2
increase in Isc from baseline (rat ileal tissues; 100 nM PK1): 28.7±2.9 µA/cm^2
EC50 (rat ileal tissues; read-out: EC50 of PK1-evoked increases in Isc, cumulative concentration-response, basolateral addition): ~8.2 nM
